# Source: US9120749B2, “Quinoline derivatives and MELK inhibitors containing the same” (ONCOTHERAPY SCIENCE, INC., priority 2010, dated 2015)
# Where a name gives a salt, the structure may show the parent alone. Read-outs that look alike come from different tables or passages of the source.
# Legend:
# [1] = test system: T47D cells; assay: Cell-based assay: anti-proliferative activity, Cell Counting Kit-8, 72 hours (T47D); conditions: 72 hours
# Outline: (§1)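 IC50 values come from CCK-8 growth measurements taken 72 hours post-treatment of plated cells with test compounds. Expression of MELK across the panel was assessed through immunoblot of unfractionated lysates.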
# [2] = test system: 22Rv1 cells; assay: Cell-based assay: anti-proliferative activity, Cell Counting Kit-8, 72 hours (22Rv1); conditions: Homo sapiens
# [3] = test system: DU4475 cells; assay: Cell-based assay: anti-proliferative activity, Cell Counting Kit-8, 72 hours (DU4475)
# [4] = test system: HT-1197 cells; assay: Cell-based assay: anti-proliferative activity, Cell Counting Kit-8, 72 hours (HT-1197, negative control without MELK expression); conditions: HT1197 cells (negative control, no MELK expression), 72 hours
# Outline: as §1
# [5] = target: MELK (Homo sapiens, UniProt Q14680); assay: Kinase assay: MELK activity, phosphorylation of FITC-labeled histone H3 peptide measured by IMAP fluorescence polarization; assay type: biochemical; conditions: read-out: IC50 (μM) (kinase assay)
# Outline: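 Substrate is FITC-labeled histone H3 peptide. Compounds come from a 12.5 mM DMSO stock, diluted so assay DMSO is 1%. The stop step adds threefold-volume progressive binding solution, followed by 0.5 h at room temperature and an FP read.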
# [6] = test system: A549 cells; assay: Cell-based assay: anti-proliferative activity, Cell Counting Kit-8, 72 hours (A549); conditions: 72 hours
# Outline: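 A549 cells seeded in 96-well plates and exposed to candidate inhibitors for 72 hours. Growth measured with Cell Counting Kit-8; IC50 values calculated from the dose response.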
# Sequence of MELK (Q14680 whole entry, looked up): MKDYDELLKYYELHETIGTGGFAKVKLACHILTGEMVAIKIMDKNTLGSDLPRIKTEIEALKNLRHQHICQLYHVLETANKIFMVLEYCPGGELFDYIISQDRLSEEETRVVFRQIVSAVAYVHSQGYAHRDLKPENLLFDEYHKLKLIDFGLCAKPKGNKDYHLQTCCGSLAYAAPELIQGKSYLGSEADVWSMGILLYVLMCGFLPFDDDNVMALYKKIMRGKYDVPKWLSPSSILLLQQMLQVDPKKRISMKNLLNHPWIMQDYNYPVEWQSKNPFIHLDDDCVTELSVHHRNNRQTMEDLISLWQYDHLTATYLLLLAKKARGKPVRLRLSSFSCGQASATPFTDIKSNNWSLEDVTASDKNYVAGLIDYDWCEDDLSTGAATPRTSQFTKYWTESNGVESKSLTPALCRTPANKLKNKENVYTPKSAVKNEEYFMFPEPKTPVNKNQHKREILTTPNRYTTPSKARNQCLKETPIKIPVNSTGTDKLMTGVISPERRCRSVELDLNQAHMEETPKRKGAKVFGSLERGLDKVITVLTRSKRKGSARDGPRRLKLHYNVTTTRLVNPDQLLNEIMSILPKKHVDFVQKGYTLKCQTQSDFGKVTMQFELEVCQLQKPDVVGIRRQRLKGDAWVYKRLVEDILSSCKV
Structure (SMILES),IC50 ([1]; dihydrochloride) [µM],IC50 [2] [µM],IC50 ([3]; dihydrochloride) [µM],IC50 ([4]; dihydrochloride) [µM],IC50 ([5]; dihydrochloride) [µM],IC50 ([6]; dihydrochloride) [µM],IC50 ([1]; hydrochloride) [µM],IC50 ([3]; hydrochloride) [µM],IC50 ([4]; hydrochloride) [µM],IC50 ([5]; hydrochloride) [µM],IC50 ([6]; hydrochloride) [µM]
"CCC(=O)c1cnc2ccc(-c3cc(Cl)c(O)c(Cl)c3)cc2c1N[C@H]1CC[C@H](CN(C)C)CC1 [Example 716, 1-(6-(3,5-dichloro-4-hydroxyphenyl)-4-((trans-4-((dimethylamino)methyl)cyclohexyl)amino)quinolin-3-yl)propan-1-one dihydrochloride]",0.14,0.14,0.055,0.82,0.0016,0.12,,,,,
"CC(=O)c1cnc2ccc(-c3cc(Cl)c(O)c(Cl)c3)cc2c1Nc1ccc(CN2CCN(C)CC2)cc1 [Example 655, 1-(6-(3,5-dichloro-4-hydroxyphenyl)-4-(4-((4-methylpiperazin-1-yl)methyl)phenylamino)quinolin-3-yl)ethanone hydrochloride]",,0.18,,,,,0.072,0.097,7.8,0.0029,0.23
"CC(=O)c1cnc2ccc(-c3cc(F)c(O)c(Cl)c3)cc2c1N[C@H]1CC[C@H](CCN(C)C)CC1 [Example 742, 1-(6-(3-chloro-5-fluoro-4-hydroxyphenyl)-4-(1R,4R)-4-(2-(dimethylamino)ethyl)cyclohexylamino)quinolin-3-yl)ethanone dihydrochloride]",0.034,0.094,0.063,1.7,0.0044,0.078,,,,,
"N[C@H]1CCCN(c2ccc(Nc3c(C(=O)C4CC4)cnc4ccc(-c5cc(Cl)c(O)c(Cl)c5)cc34)cn2)C1 [Example 647, (S)-(4-(6-(3-aminopiperidin-1-yl)pyridin-3-ylamino)-6-(3,5-dichloro-4-hydroxyphenyl)quinolin-3-yl)(cyclopropyl)methanone hydrochloride]",,0.03,,,,,0.03,0.015,0.75,0.0015,0.08
